Reference: patent publication US9018381B2, “Chemical compounds” (AstraZeneca AB, priority 2010, dated 2015)

Experiments:
Bcl-2 = Bcl-2 (Homo sapiens (Human), UniProt P10415); test: Bcl-2 FP assay (fluorescence polarization competitive binding); conditions: c-terminal 6×HIS tagged Bcl-2 (aa 1-204), FITC-Bim BH-3 peptide tracer
From the text: (§1) Bcl-xL and Bcl-2 FP binding affinity of compound(s) of Formulae (I), (I-a), (I-b), (I-c), (I-d) and/or (I-e) may be determined using a variety of known methods. One such assay is a sensitive and quantitative in vitro binding assay using fluorescence polarization (“FP”) described by Wang, J.-L.; Zhang, Z-J.; Choksi, S.; Sjam. S.; Lu, Z.; Croce, C. M.; Alnemri, E. S.; Komgold, R.; Huang, Z. Cell permeable Bcl-2 binding peptides: a chemical approach to apoptosis induction in tumor cells. Cancer Res. 2000, 60, 1498-1502).
(§2) Additionally, the binding affinity of compound(s) of Formulae (I), (I-a), (I-b), (I-c), (I-d) and/or (I-e) to Bcl-2 protein in vitro was determined by a competitive binding assay based on fluorescence polarization. For example, fluorescence polarization (“FP”) assays may be developed using a c-terminal 6×HIS tagged Bcl-2 (aa 1-204) and a C-terminal 6×HIS tagged Bcl-XL (aa 1-209). […] Dilutions of either Bcl-2 (1.3 nM) or Bcl-XL (0.8 nM) may be added to serial dilutions of antagonist and incubated for one hour prior to the addition of 2 nM of fluorescent peptide tracer (Anaspec, Fremont, Calif.) in the assay buffer. Final assay buffer conditions may be 20 mM HEPES, pH 7.5, 1 mM DTT, 0.005% Tween-20 and 50 mM NaCl. Samples may be read after 20-minute incubation. Fluorescence polarization values may be plotted as a function of the antagonist concentration.

Bcl-XL = Bcl-XL (Homo sapiens (Human), UniProt Q07817); test: Bcl-XL FP assay (fluorescence polarization competitive binding); conditions: C-terminal 6×HIS tagged Bcl-XL (aa 1-209), FITC-Bim BH-3 peptide tracer
Sequence of Bcl-XL (Q07817 1-209): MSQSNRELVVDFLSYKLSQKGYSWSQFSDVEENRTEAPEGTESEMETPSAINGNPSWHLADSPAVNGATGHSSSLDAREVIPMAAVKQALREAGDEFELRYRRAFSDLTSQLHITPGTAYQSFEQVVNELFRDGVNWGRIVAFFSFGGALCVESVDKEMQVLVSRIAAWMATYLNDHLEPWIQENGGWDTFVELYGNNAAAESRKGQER
From the text: as §1, §2

Sequence of Bcl-2 (P10415 1-204): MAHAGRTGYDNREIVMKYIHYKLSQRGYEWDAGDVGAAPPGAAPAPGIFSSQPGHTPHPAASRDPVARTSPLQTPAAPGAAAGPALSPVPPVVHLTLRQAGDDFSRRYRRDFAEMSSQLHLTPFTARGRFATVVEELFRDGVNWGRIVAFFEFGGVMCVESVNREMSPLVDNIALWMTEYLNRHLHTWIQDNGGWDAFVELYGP

## O=C(NS(=O)(=O)c1ccc(N[C@H](CCN2CCN(C[C@H](O)CF)CC2)CSc2ccccc2)c(S(=O)(=O)C(F)(F)F)c1)c1ccc(N2CCC([C@@H](O)c3ccccc3-c3ccc(Cl)cc3)CC2)cc1 (single isomer, unassigned) [Example 6]
Bcl-2
  IC50: 1 nM
Bcl-XL
  IC50: 2 nM
